Reference: US9676701B2, “Cyclopropylamine derivatives useful as LSD1 inhibitors” (Oryzon Genomics, S.A., priority 2010, dated 2017)
Structures can show the parent of a compound that is named as a salt. Where two headings read alike, the source gives them in different places.

Assays:
[1] = target: T1, Human recombinant LSD1 protein (Homo sapiens (Human), UniProt O60341); settings: for Ki: read-out: LSD1 (Ki)
Description: (§1) The ability of the compounds of the invention to inhibit LSD1 can be tested as follows. Human recombinant LSD1 protein was purchased from BPS Bioscience Inc. In order to monitor LSD1 enzymatic activity and/or its inhibition rate by our inhibitor(s) of interest, di-methylated H3-K4 peptide (Millipore) was chosen as a substrate. The demethylase activity was estimated, under aerobic conditions, by measuring the release of H2O2 produced during the catalytic process, using the Amplex® Red peroxide/peroxidase-coupled assay kit (Invitrogen).
(§2) Within the experiment, each concentration of inhibitor was tested in triplicate. […] The enzymatic reactions were set up in a 50 mM sodium phosphate, pH 7.4 buffer. At the end of the incubation, Amplex® Red reagent and horseradish peroxidase (HPR) solution were added to the reaction according to the recommendations provided by the supplier (Invitrogen), and left to incubate for 30 extra minutes at room temperature in the dark. A 1 μM H2O2 solution was used as a control of the kit efficiency.
(§3) The Ki (IC50) of each inhibitor was estimated at half of the maximum activity.

[2] = target: T2, MAO-A (Homo sapiens (Human), UniProt P21397); settings: read-out: MAO-A (Ki)
[3] = target: T3, MAO-B (Homo sapiens (Human), UniProt P27338); settings: read-out: MAO-B (Ki)
[4] = target: T1, Human recombinant LSD1 protein; experiment: biochemical
Description: as §1, §2, §3

[5] = target: T2, MAO-A; experiment: biochemical
[6] = target: T3, MAO-B; experiment: biochemical

T2 sequence (P21397 whole entry): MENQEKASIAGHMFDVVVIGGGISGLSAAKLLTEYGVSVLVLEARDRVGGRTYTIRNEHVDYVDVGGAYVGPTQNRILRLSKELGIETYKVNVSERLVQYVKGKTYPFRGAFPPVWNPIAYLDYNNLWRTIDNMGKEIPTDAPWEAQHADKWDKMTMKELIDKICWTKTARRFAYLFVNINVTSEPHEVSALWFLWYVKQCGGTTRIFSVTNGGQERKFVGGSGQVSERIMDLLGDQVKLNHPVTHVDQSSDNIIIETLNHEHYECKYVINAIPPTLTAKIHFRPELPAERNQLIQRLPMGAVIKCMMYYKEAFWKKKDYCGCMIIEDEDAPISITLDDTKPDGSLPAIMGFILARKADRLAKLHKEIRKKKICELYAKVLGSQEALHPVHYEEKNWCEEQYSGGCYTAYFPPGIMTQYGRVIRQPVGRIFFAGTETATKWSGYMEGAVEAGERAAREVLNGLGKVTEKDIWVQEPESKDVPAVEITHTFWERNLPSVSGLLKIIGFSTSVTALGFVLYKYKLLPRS
T3 sequence (P27338 whole entry): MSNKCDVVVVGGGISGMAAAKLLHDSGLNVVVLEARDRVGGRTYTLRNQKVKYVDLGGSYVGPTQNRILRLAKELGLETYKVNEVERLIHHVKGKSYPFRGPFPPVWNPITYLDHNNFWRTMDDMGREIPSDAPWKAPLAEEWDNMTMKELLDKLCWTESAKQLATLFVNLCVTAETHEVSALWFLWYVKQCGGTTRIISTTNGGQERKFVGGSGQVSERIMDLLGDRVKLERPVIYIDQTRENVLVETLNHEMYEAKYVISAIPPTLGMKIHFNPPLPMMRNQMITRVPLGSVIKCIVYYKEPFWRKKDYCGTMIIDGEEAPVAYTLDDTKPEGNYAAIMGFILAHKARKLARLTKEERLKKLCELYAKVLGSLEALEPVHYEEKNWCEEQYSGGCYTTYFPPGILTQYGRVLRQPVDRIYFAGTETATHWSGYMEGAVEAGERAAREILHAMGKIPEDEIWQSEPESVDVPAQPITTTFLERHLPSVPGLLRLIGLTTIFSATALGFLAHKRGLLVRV

Molecule	Ki [1] [nM]	Ki [2] [nM]	Ki [3] [nM]	Ki [4] [nM]	Ki [5] [nM]	Ki [6] [nM]	LSD1 (Ki) [1]
Cc1cc([C@H]2C[C@@H]2N)cnc1-c1cccc(Cl)c1 (relative stereo) [Example 36, (trans)-2-(6-(3-chlorophenyl)-5-methylpyridin-3-yl)cyclopropanamine]	1000 to 40000	1000 to 40000	1000 to 40000				
CS(=O)(=O)Nc1cc(-c2ccc([C@H]3C[C@@H]3N)cc2)ccc1F (relative stereo) [Example 96, N-(4′-((trans)-2-aminocyclopropyl)-4-fluoro-[1,1′-biphenyl]-3-yl)methanesulfonamide hydrochloride]			1000 to 40000	1 to 100	100 to 1000		
COc1cc(-c2cccc(O)c2)ccc1[C@H]1C[C@@H]1N (relative stereo) [Example 106, 4′-((trans)-2-aminocyclopropyl)-3′-methoxy-[1,1′-biphenyl]-3-ol hydrochloride]			1000 to 40000	100 to 1000	100 to 1000		
NC(=O)c1ccc(-c2ccc([C@H]3C[C@@H]3N)cn2)cc1 (relative stereo) [Example 18, 4-(5-((trans)-2-aminocyclopropyl)pyridin-2-yl)benzamide hydrochloride]	1000 to 40000	1000 to 40000	1000 to 40000				
N#Cc1ccc(O)c(-c2ccc([C@H]3C[C@@H]3N)cn2)c1 (relative stereo) [Example 89, 3-(5-((trans)-2-aminocyclopropyl)pyridin-2-yl)-4-hydroxybenzonitrile hydrochloride]					100 to 1000		
N#Cc1cccc(S(=O)(=O)Nc2cccc(-c3ccc([C@H]4C[C@@H]4N)cn3)c2)c1 (relative stereo) [Example 100, N-(3-(5-((trans)-2-aminocyclopropyl)pyridin-2-yl)phenyl)-3-cyanobenzenesulfonamide hydrochloride]					100 to 1000		
N#Cc1ccc(O)c(-c2ccc([C@H]3C[C@@H]3N)cc2)c1 (relative stereo) [Example 87, 4′-((trans)-2-aminocyclopropyl)-6-hydroxybiphenyl-3-carbonitrile hydrochloride]					100 to 1000		
N[C@H]1C[C@@H]1c1ccc(-c2ccc(-c3ccccc3)cc2)cc1 [Example 2, (trans)-2-(terphenyl-4-yl)cyclopropanamine hydrochloride]				100 to 1000		100 to 1000	
Cc1cc([C@H]2C[C@@H]2N)cnc1-c1cccc(C(F)(F)F)c1 (relative stereo) [Example 37, (trans)-2-(5-methyl-6-(3-(trifluoromethyl)phenyl)pyridin-3-yl)cyclopropanamine hydrochloride]	1000 to 40000	1000 to 40000	1000 to 40000				
Enantiomers of 4′-((trans)-2-aminocyclopropyl)biphenyl-3-ol hydrochloride [Example 63]	1 to 100	1000 to 40000	1000 to 40000				
N[C@H]1C[C@@H]1c1ccc(-c2cccc(C(F)(F)F)c2)nc1-c1ccc(Cl)cc1 (relative stereo) [Example 77, (trans)-2-(2-(4-chlorophenyl)-6-(3-(trifluoromethyl)phenyl)pyridin-3-yl)cyclopropanamine hydrochloride]	1000 to 40000	1000 to 40000	1000 to 40000				
COc1ccc(C#N)cc1-c1ccc([C@H]2C[C@@H]2N)cc1.Cl (relative stereo) [Example 74, 4′-((trans)-2-aminocyclopropyl)-6-methoxybiphenyl-3-carbonitrile hydrochloride]		1000 to 40000	1000 to 40000				II-III
N[C@H]1C[C@@H]1c1cnc(-c2cccc(O)c2)s1 (relative stereo) [Example 116, 3-(5-((trans)-2-aminocyclopropyl)thiazol-2-yl)phenol hydrochloride]			1000 to 40000	1 to 100	1 to 100		
CCS(=O)(=O)Nc1cccc(-c2ccc([C@H]3C[C@@H]3N)cn2)c1 (relative stereo) [Example 98, N-(3-(5-((trans)-2-aminocyclopropyl)pyridin-2-yl)phenyl)ethanesulfonamide hydrochloride]		1000 to 40000	1000 to 40000	1 to 100			
CS(=O)(=O)Nc1ccccc1-c1ccc([C@H]2C[C@@H]2N)cc1.Cl (relative stereo) [Example 73, N-(4′-((trans)-2-aminocyclopropyl)biphenyl-2-yl)methanesulfonamide hydrochloride]		1000 to 40000	1000 to 40000				II-III
N[C@H]1C[C@@H]1c1ccc(-c2ccc(O)cc2)cc1 (relative stereo) [Example 3, 4′-((trans)-2-aminocyclopropyl)biphenyl-4-ol hydrochloride]		1000 to 40000	1000 to 40000	100 to 1000			
N#Cc1ccc(-c2ccc([C@H]3C[C@@H]3N)cn2)cc1 (relative stereo) [Example 12, 4-(5-((trans)-2-aminocyclopropyl)pyridin-2-yl)benzonitrile dihydrochloride]		1000 to 40000	1000 to 40000	100 to 1000			

Molecule	Ki [1] [nM]	Ki [2] [nM]	Ki [3] [nM]	Ki [4] [nM]	Ki [5] [nM]	Ki [6] [nM]	LSD1 (Ki) [1]
CC(C)S(=O)(=O)Nc1cccc(-c2ccc([C@H]3C[C@@H]3N)cn2)c1 (relative stereo) [Example 65, N-(3-(5-((trans)-2-aminocyclopropyl)pyridin-2-yl)phenyl)propane-2-sulfonamide hydrochloride]		1000 to 40000	1000 to 40000	1 to 100			
N[C@H]1C[C@@H]1c1ccc(-c2cccc(C(F)(F)F)c2)nc1Cl (relative stereo) [Example 76, (trans)-2-(2-chloro-6-(3-(trifluoromethyl)phenyl)pyridin-3-yl)cyclopropanamine hydrochloride]		1000 to 40000	1000 to 40000	100 to 1000			
Cl.N[C@H]1C[C@@H]1c1ccc(-c2ccc3cn[nH]c3c2)nc1 (relative stereo) [Example 60, (Trans)-2-(6-(1H-indazol-6-yl)pyridin-3-yl)cyclopropanamine hydrochloride]		1000 to 40000	1000 to 40000				II-III
N[C@H]1C[C@@H]1c1ccc(-c2cccc(C(F)(F)F)c2)nc1-c1ccc(O)cc1 (relative stereo) [Example 78, 4-(3-((trans)-2-aminocyclopropyl)-6-(3-(trifluoromethyl)phenyl)pyridin-2-yl)phenol hydrochloride]	1000 to 40000	1000 to 40000	1000 to 40000				
N[C@H]1C[C@@H]1c1ccc(-c2cc(C(F)(F)F)ccc2F)nc1 (relative stereo) [Example 49, (trans)-2-(6-(2-fluoro-5-(trifluoromethyl)phenyl)pyridin-3-yl)cyclopropanamine hydrochloride]		1000 to 40000	1000 to 40000	100 to 1000			
CS(=O)(=O)Nc1cc(Cl)cc(-c2ccc([C@H]3C[C@@H]3N)cn2)c1 (relative stereo) [Example 95, N-(3-(5-((trans)-2-aminocyclopropyl)pyridin-2-yl)-5-chlorophenyl)methanesulfonamide hydrochloride]					100 to 1000		
Cc1cscc1-c1ccc([C@H]2C[C@@H]2N)cn1 (relative stereo) [Example 57, (trans)-2-(6-(4-methylthiophen-3-yl)pyridin-3-yl)cyclopropanamine hydrochloride]		1000 to 40000	1000 to 40000	100 to 1000			
N[C@H]1C[C@@H]1c1ccc(-c2cc(O)ccc2F)nc1 (relative stereo) [Example 25, 3-(5-((trans)-2-aminocyclopropyl)pyridin-2-yl)-4-fluorophenol hydrochloride]		1000 to 40000	1000 to 40000	1 to 100			
CNS(=O)(=O)c1cccc(-c2ccc([C@H]3C[C@@H]3N)cn2)c1 [Example 104, hydrochloride]			1000 to 40000		100 to 1000		
COc1ccc(F)c(-c2ccc([C@H]3C[C@@H]3N)cn2)c1 (relative stereo) [Example 40, (trans)-2-(6-(2-fluoro-5-methoxyphenyl)pyridin-3-yl)cyclopropanamine hydrochloride]		1000 to 40000	1000 to 40000	100 to 1000			
COc1cc(-c2ccc([C@H]3C[C@@H]3N)cn2)cc(F)c1F (relative stereo) [Example 58, (Trans)-2-(6-(3,4-difluoro-5-methoxyphenyl)pyridin-3-yl)cyclopropanamine hydrochloride]		1000 to 40000	1000 to 40000	100 to 1000			
COc1cc(F)cc(-c2ccc([C@H]3C[C@@H]3N)cn2)c1 (relative stereo) [Example 39, (trans)-2-(6-(3-fluoro-5-methoxyphenyl)pyridin-3-yl)cyclopropanamine hydrochloride]		1000 to 40000	1000 to 40000	100 to 1000			
N[C@H]1C[C@@H]1c1ccc(-c2ccc3sccc3c2)nc1 (relative stereo) [Example 34, (trans)-2-(6-(benzo[b]thiophen-5-yl)pyridin-3-yl)cyclopropanamine hydrochloride]		1000 to 40000	1000 to 40000	100 to 1000			
N[C@H]1C[C@@H]1c1ccc(-c2cccc(O)c2)cc1 (relative stereo) [Example 4, 4′-((trans)-2-aminocyclopropyl)biphenyl-3-ol hydrochloride]		1000 to 40000	1000 to 40000	1 to 100			
NC(=O)c1ccc(-c2nc(-c3cccc(C(F)(F)F)c3)ccc2[C@H]2C[C@@H]2N)cc1 (relative stereo) [Example 79, 4-(3-((trans)-2-aminocyclopropyl)-6-(3-(trifluoromethyl)phenyl)pyridin-2-yl)benzamide hydrochloride]	1000 to 40000	1000 to 40000	1000 to 40000				
N[C@H]1C[C@@H]1c1ccc(-c2ccc3c(c2)[nH]c2ccccc23)nc1 (relative stereo) [Example 61, (Trans)-2-(6-(9H-carbazol-2-yl)pyridin-3-yl)cyclopropanamine hydrochloride]	1000 to 40000	1000 to 40000	1000 to 40000				
